Test results as given in paper PMC6152131, “Pharmacokinetic Study of Biotransformation Products from an Anxiolytic Fraction of Tilia americana” (Molecules : A Journal of Synthetic Chemistry and Natural …, 2017).

Tests used:
[1] = Stability of flavonoids and biotransformation products in mouse plasma under different handling conditions; type: in vitro ADME, mice; conditions: for Accuracy Bias 0 h / Observed Conc. 0 h / Accuracy Bias 8 h / Observed Conc. 8 h / Accuracy Bias 24 h / Observed Conc. 24 h: room temperature (25 °C); for Observed Conc. 0 h / Observed Conc. 8 h / Observed Conc. 24 h / Observed Conc. Autosampler (4 °C; 8 h) / Observed Conc. Long-term (−70 °C; 1 month): n = 6; for Accuracy Bias Autosampler (4 °C; 8 h) / Accuracy Bias Long-term (−70°C; 1 month) / Observed Conc. Autosampler (4 °C; 8 h) / Observed Conc. Long-term (−70 °C; 1 month): storage stability
Description: (§1) Plasma dried pulverized samples were extracted with methanol (HPLC grade, Merck). The extracts were filtered with Teflon membrane dimensions 0.45 μm by 13 mm (Millex®-LCR); 20 μL of each filtered sample was injected into the HPLC equipment. The measurements were performed in a (Waters corporation, Milford, CT, USA) 2695 HPLC with a diode array detector (Waters 2996) and processed with the Empower Pro 1.0 software. A Chromolith Performance® RP-18e 100 × 4.6 mm (Merck KGaA, Darmstadt, Germany) was used. The mobile phase consisted of a mixture of acetonitrile and water with the proportion 55:45 and a flow rate of 1 mL/min. The concentrations of the flavonoids and the biotransformation products were obtained by comparison with a pre-built calibration curve at λ = 220 nm.
[…] The investigation enclosed here expected manipulation conditions during all the sample storage and process periods, which included the stability data from the freeze/thaw, bench-top, autosampler, and long–term stability tests.
For all stability studies, fresh QC samples were evaluated by using a freshly prepared standard curve for the measurements. The concentrations obtained from all the stability studies were compared with the fresh QC samples, and the percentage concentration deviation was calculated. The analytes were considered stable in the mouse plasma when the concentration difference between the freshly prepared samples and the stability samples was less than 15%.

[2] = Plasma concentration after a single oral dose of the anxiolytic fraction (HPLC); type: in vivo, ICR mice; conditions: mouse, plasma, ICR mice, n = 10
Description: Eleven groups of ten animals each were randomly formed. All animals were orally administered with 200 mg/kg of the active fraction. Animals were anaesthetized with ether, and blood samples were obtained from the retroorbital sinus with a heparinized capillary, each group was examined at different times (0, 5, 10, 15, 30, 60, 120, 240, 480, 720, and 1440 min) after the active fraction was administered. […] Then the plasma samples were frozen and lyophilized. The dry plasma was subsequently used to extract and measure the concentration of the flavonoids and biotransformation products.
as §1
(§2) To evaluate the suitability of the assay for the pharmacokinetic studies, 200 mg/kg of the active fraction was orally administered to the animals. Ten animals were used in each group at different times (0, 5, 10, 15, 30, 60, 120, 240, 480, 720, and 1440 min). Pharmacokinetic calculations were performed using the observed data. All data was subsequently processed using the PKSolver add-in program for Microsoft Excel written in Visual Basic for Applications. All values obtained were expressed in mean ± standard deviation.

[3] = Pharmacokinetic analysis, two-compartment model (PKSolver); type: in vivo, ICR mice
Description: The data shown in Table 2 were applied to the program PKSolver. After a single oral administration of 200 mg/kg of the anxiolitic fraction of T. americana, the behavior of the concentration-time data allowed us to determine the main pharmacokinetic parameters under a two-compartment model (Table 3), and the same program provided the graphical behavior of the variables and the adjustment to the two-compartment model.
as §2
For the pharmacokinetic assay, the selection was made either from a one-compartment or a two-compartment model, with the use of both the Akaike information criterion (AIC) and the Schwarz criterion (SC). Using these two criteria, one can select which model is more suited to being adjusted, to the point where it reaches the lowest values of the AIC or SC criteria, which means that the chosen model is more parsimonious (less parameters required) and best fits the data (low error prediction).

[4] = high nominal conc. (7.00; 44.37; 4.50; 31.25 µg/mL)
[5] = low nominal conc. (1.75; 11.02; 1.12; 1.95 µg/mL)
[6] = medium nominal conc. (3.50; 22.18; 2.24; 7.81 µg/mL)
[7] = mouse, oral 200 mg/kg anxiolytic fraction, ICR mice plasma, two-compartment model
[8] = oral 200 mg/kg anxiolytic fraction, ICR mice plasma, two-compartment model
[9] = oral 200 mg/kg anxiolytic fraction, ICR mice plasma, two-compartment model, n = 10

Accuracy Bias 0 h ([1]; high nominal conc.): 0.26%
Observed Conc. 0 h ([1]; high nominal conc. (rutin 7.00; quercetin glucoside, quercitrin, tiliroside 44.37; kaempferol 4.50; m-HPAA, p-HPAA, DOPAC 31.25 µg/mL)): 31.61 ± 0.26 µg/mL
Accuracy Bias 0 h ([1]; low nominal conc.): 0.02%
Observed Conc. 0 h ([1]; low nominal conc. (rutin 1.75; quercetin glucoside, quercitrin, tiliroside 11.02; kaempferol 1.12; m-HPAA, p-HPAA, DOPAC 1.95 µg/mL)): 1.98 ± 0.020 µg/mL
Accuracy Bias 0 h ([1]; medium nominal conc.): 0.03%
Observed Conc. 0 h ([1]; medium nominal conc. (rutin 3.50; quercetin glucoside, quercitrin, tiliroside 22.18; kaempferol 2.24; m-HPAA, p-HPAA, DOPAC 7.81 µg/mL)): 7.85 ± 0.032 µg/mL
Accuracy Bias 8 h ([1]; high nominal conc.): 0.25%
Observed Conc. 8 h [1, 4]: 31.64 ± 0.24 µg/mL
Accuracy Bias 8 h ([1]; low nominal conc.): 0.03%
Observed Conc. 8 h [1, 5]: 1.92 ± 0.02 µg/mL
Accuracy Bias 8 h ([1]; medium nominal conc.): 0.03%
Observed Conc. 8 h [1, 6]: 7.86 ± 0.03 µg/mL
Accuracy Bias 24 h ([1]; high nominal conc.): 0.19%
Observed Conc. 24 h [1, 4]: 31.53 ± 0.19 µg/mL
Accuracy Bias 24 h ([1]; low nominal conc.): 0.03%
Observed Conc. 24 h [1, 5]: 1.91 ± 0.03 µg/mL
Accuracy Bias 24 h ([1]; medium nominal conc.): 0.02%
Observed Conc. 24 h [1, 6]: 7.78 ± 0.02 µg/mL
Accuracy Bias Autosampler (4 °C; 8 h) ([1]; high nominal conc.): 2.23%
Accuracy Bias Long-term (−70°C; 1 month) ([1]; high nominal conc.): 2.11%
Observed Conc. Autosampler (4 °C; 8 h) [1, 4]: 31.61 ± 0.19 µg/mL
Observed Conc. Long-term (−70 °C; 1 month) [1, 4]: 31.53 ± 0.25 µg/mL
Accuracy Bias Autosampler (4 °C; 8 h) ([1]; low nominal conc.): 0.88%
Accuracy Bias Long-term (−70°C; 1 month) ([1]; low nominal conc.): 1.15%
Observed Conc. Autosampler (4 °C; 8 h) [1, 5]: 1.91 ± 0.03 µg/mL
Observed Conc. Long-term (−70 °C; 1 month) [1, 5]: 1.99 ± 0.03 µg/mL
Accuracy Bias Autosampler (4 °C; 8 h) ([1]; medium nominal conc.): 0.38%
Accuracy Bias Long-term (−70°C; 1 month) ([1]; medium nominal conc.): 0.58%
Observed Conc. Autosampler (4 °C; 8 h) [1, 6]: 7.78 ± 0.02 µg/mL
Observed Conc. Long-term (−70 °C; 1 month) [1, 6]: 7.85 ± 0.03 µg/mL
concentration at 5 min ([2]; 5 min after single oral dose of 200 mg/kg of the anxiolytic fraction, ND = not detected): 6600 ± 430 ng/mL
concentration at 10 min ([2]; 10 min after single oral dose of 200 mg/kg of the anxiolytic fraction): 6430 ± 350 ng/mL
concentration at 15 min ([2]; 15 min after single oral dose of 200 mg/kg of the anxiolytic fraction): 7730 ± 610 ng/mL
concentration at 30 min ([2]; 30 min after single oral dose of 200 mg/kg of the anxiolytic fraction): 7170 ± 520 ng/mL
concentration at 60 min ([2]; 60 min after single oral dose of 200 mg/kg of the anxiolytic fraction): 6880 ± 430 ng/mL
concentration at 120 min ([2]; 120 min after single oral dose of 200 mg/kg of the anxiolytic fraction): 6340 ± 410 ng/mL
concentration at 240 min ([2]; 240 min after single oral dose of 200 mg/kg of the anxiolytic fraction): 6260 ± 320 ng/mL
concentration at 480 min ([2]; 480 min after single oral dose of 200 mg/kg of the anxiolytic fraction): 6100 ± 340 ng/mL
concentration at 720 min ([2]; 720 min after single oral dose of 200 mg/kg of the anxiolytic fraction): 6010 ± 540 ng/mL
concentration at 1440 min ([2]; 1440 min after single oral dose of 200 mg/kg of the anxiolytic fraction): 5930 ± 490 ng/mL
CL/F, times lower than m-HPAA ([3]; after oral administration): 30 times
CL/F, times lower than p-HPAA ([3]; after oral administration): 20 times
AUC(0-inf) [3, 7]: 3850 µg·h/mL
Cmax [3, 7]: 7180 ng/mL
Tmax [3, 7]: 0.215 h
AUC(0-t) ([3]; mouse, oral 200 mg/kg anxiolytic fraction, ICR mice plasma, two-compartment model, read-out: AUC0→1440 (converted)): 146 µg·h/mL
MRT ([3]; mouse, oral 200 mg/kg anxiolytic fraction, ICR mice plasma, two-compartment model, read-out: MRT (mean residence time) (converted)): 625 h
k el ([3]; mouse, oral 200 mg/kg anxiolytic fraction, ICR mice plasma, two-compartment model, read-out: k10 (apparent first-order elimination rate constant from the central compartment) (converted)): 5.3e-07 s⁻¹
half-life ([3]; mouse, oral 200 mg/kg anxiolytic fraction, ICR mice plasma, two-compartment model, read-out: t1/2β): 434 h
CL/F (apparent clearance) [3, 8]: 0.0008 (mg/Kg)/(μg/mL)/min
V/F (apparent volume of distribution) [3, 8]: 27.21 (mg/Kg)/(µg/mL)
k12 (transfer rate constant central to peripheral compartment) [3, 8]: 0.002 min⁻¹
k21 (transfer rate constant peripheral to central compartment) [3, 8]: 0.0096 min⁻¹
ka (apparent first-order absorption rate constant) [3, 8]: 0.43 min⁻¹
t1/2ka (absorption half time) [3, 8]: 1.61 min
t1/2α [3, 8]: 0.9992 h
α [3, 8]: 0.01 min⁻¹
β [3, 8]: 2.66e-05 min⁻¹
A (plasma concentration coefficient, central compartment) [3, 9]: 1.23 µg/mL
B (plasma concentration coefficient, peripheral compartment) [3, 9]: 6.16 µg/mL
index: relation between rate constants of k12 with respect to k21 ([3]; two-compartment model): 0.20
SMILES: O=C(O)Cc1ccc(O)c(O)c1 [DOPAC, 3,4-dihydroxyphenylacetic acid]
